Source: patent publication US20240408059A1, “METHOD OF TREATING ADDICTION” (Anebulo Pharmaceuticals, Inc., priority 2021, published 2024)
Each block holds one compound with its values, some of them ahead of it.

How the values were obtained:
[1] = Compound 2 in treatment of cannabis use disorder (CUD) / cannabis withdrawal; assay type: in vivo, human
Text: Compound 2 is used in a combination treatment for cannabis use disorder (CUD). Combinations include use of antidepressants (specifically sedating antidepressants, such as mirtazapine or trazodone), antipsychotics, CB1 agonists such as THC and allosteric CB1 modulators such as Cannabidiol. These agents improve the safety profile of a CB1 inhibitor as described herein, such as compound 2, and lessen the burden of the withdrawal symptoms.
The benefits of a combination therapy comprising compound 2 and a sedating antidepressant, such as Mirtazapine or Trazodone, are outline in Table 1 below.
Daily doses such as between about 5 mg and about 100 mg of Compound 2 are efficacious in CUD. Doses of 1-50 mg or 20 to 30 mg may also be used. Compound 2 is also evaluated in combination with daily doses of Mirtazapine at about 15 mg to about 45 mg, or daily doses of Trazodone at about 50 mg to about 400 mg. Mirtazapine is given at bedtime. In another embodiment, Compound 2 and Mirtazapine are formulated and administered as a single oral dosage form, such as a tablet or a capsule.

[2] = molecular target: T1, CYP3A4 (Homo sapiens, UniProt P08684); assay: Drug-drug interactions, CYP3A4 inhibition; assay type: in vitro ADME
Method: (§1) In steady state, the patient has 24 h coverage despite convenient once daily dosing. […] Both antidepressants and drug withdrawal can decrease the seizure threshold.

[3] = Seizure liability; conditions: in vivo
Method: as §1

[4] = Half-life of Compound 2 (once daily dosing, steady state); assay type: in vivo; conditions: accumulation enables slow onset; 24 h coverage in steady state with once daily dosing
Method: as §1

[5] = molecular target: T1, CYP3A4; conditions: CYP3A4 inhibitors increase the concentrations of both drugs; cited from earlier work
[6] = patients taking the drug long term; vs 5%; cited from earlier work

T1 sequence (P08684 whole entry): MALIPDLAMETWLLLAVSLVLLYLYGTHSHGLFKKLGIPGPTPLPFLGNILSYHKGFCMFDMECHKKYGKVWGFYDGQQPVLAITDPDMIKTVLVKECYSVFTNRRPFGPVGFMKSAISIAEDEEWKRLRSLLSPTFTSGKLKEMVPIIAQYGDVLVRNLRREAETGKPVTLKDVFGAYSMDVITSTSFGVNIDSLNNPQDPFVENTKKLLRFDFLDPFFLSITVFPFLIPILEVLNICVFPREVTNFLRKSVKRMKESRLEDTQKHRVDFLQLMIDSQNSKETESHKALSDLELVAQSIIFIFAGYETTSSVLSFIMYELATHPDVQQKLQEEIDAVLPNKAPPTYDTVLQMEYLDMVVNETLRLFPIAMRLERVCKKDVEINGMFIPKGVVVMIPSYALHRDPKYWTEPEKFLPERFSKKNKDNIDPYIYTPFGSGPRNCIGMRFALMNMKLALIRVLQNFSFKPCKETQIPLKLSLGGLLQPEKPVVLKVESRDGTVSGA

Effect of Compound 2 on anxiety (withdrawal symptoms) ([1]; cannabis withdrawal): Increases anxiety
Effect of Compound 2 on mood ([1]; cannabis withdrawal): Depressed mood
Effect of Compound 2 on sleep problems (withdrawal symptoms) ([1]; cannabis withdrawal): Increases sleep
Effect of Compound 2 on weight ([1]; cannabis withdrawal): Weight loss
half-life [4]: Long half-life
SMILES: CC(C)(C)NC(=O)N1CC(O[C@H](c2ccc(Cl)cc2)c2ccccc2C(F)(F)F)C1 [Compound 2, (R)—N-(tert-butyl)-3-((4-chlorophenyl)(2-(trifluoromethyl)phenyl)methoxy)azetidine-1-carboxamide]
Effect of Compound 2 on high probability of THC use/relapse: anti-addictive properties ([1]; cannabis withdrawal): has anti-addictive
Effect of Compound 2 on high probability of THC use/relapse: getting high ([1]; cannabis withdrawal): Blocks getting high +
efficacy in CUD ([1]; daily doses between about 5 mg and about 100 mg): efficacious
drug-drug interactions, particularly CYP3A4 inhibition [2]: Lack of drug-drug interactions, particularly CYP3A4 inhibition
seizure liability [3]: Lack of seizure liability

SMILES: CN1CCN2c3ncccc3Cc3ccccc3C2C1 (stereo not shown) [Mirtazapine]
metabolizing enzyme [5]: metabolized by CYP3A4

SMILES: Cc1c(C(=O)NN2CCCCC2)nn(-c2ccc(Cl)cc2Cl)c1-c1ccc(Cl)cc1 [Rimonabant]
incidence of depression [6]: 9%

SMILES: O=c1n(CCCN2CCN(c3cccc(Cl)c3)CC2)nc2ccccn12 [Trazodone]
metabolizing enzyme [5]: metabolized by CYP3A4
